The values that follow come from US20250361230A1, “LATS Inhibitors and Uses Thereof” (The USA, as Represented by the Secretary, Dept. of Heath …, priority 2022, published 2025).

Common to all, as to format: biochemical
One experiment concerns the target T1, LATS1 (Homo sapiens, UniProt O95835).
T1 sequence (O95835 1-1130): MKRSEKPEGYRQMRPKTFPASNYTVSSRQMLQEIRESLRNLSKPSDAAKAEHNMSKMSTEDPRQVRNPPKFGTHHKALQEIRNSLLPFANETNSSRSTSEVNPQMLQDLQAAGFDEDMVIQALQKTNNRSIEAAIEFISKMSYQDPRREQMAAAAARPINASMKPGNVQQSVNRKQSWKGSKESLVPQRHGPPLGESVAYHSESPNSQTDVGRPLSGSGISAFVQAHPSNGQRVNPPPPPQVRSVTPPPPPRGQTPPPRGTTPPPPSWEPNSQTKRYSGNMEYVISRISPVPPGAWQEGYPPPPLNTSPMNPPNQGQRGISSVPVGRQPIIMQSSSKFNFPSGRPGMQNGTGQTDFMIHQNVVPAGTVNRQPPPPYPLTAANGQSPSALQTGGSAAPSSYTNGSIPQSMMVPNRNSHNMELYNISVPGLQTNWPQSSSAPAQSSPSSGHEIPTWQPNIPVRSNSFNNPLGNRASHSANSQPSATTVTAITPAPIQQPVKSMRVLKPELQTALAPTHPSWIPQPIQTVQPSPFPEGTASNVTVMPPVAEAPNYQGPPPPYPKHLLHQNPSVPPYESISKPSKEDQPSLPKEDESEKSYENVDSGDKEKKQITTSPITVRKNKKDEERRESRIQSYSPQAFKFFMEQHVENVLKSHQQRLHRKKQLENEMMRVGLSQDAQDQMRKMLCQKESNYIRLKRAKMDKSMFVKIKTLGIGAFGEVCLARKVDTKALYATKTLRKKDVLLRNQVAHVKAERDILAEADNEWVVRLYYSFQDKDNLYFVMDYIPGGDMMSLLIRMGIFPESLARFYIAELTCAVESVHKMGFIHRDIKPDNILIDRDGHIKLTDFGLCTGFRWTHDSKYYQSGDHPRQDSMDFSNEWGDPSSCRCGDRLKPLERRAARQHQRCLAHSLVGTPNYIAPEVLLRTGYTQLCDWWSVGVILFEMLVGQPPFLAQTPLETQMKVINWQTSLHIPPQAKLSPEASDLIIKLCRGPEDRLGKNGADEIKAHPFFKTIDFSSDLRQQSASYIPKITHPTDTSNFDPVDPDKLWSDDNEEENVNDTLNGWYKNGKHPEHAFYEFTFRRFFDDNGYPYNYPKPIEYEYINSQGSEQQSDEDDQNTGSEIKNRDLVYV
The experiment in a line: RBC HotSpot kinase assay (33P-ATP, P81 filter-binding), LATS1. As to conditions: Table 28, biochemical kinase assay; read-out: LATS1 IC50. A digest of the protocol:
(§1)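 Radiometric 33P-ATP kinase reaction in 20 mM Hepes pH 7.5, 10 mM MgCl2, 1 mM EGTA, 0.01% Brij35, 0.02 mg/ml BSA, 0.1 mM Na3VO4, 2 mM DTT, 1% DMSO. Compound preincubated with kinase and substrate 20 min, then 2 h at room temperature; P81 filter-binding read-out. IC50 (nM) from 10-point singlet curves.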

The next experiment has as its target T2, LATS2 (Homo sapiens, UniProt Q9NRM7).
T2 sequence (Q9NRM7 1-1088): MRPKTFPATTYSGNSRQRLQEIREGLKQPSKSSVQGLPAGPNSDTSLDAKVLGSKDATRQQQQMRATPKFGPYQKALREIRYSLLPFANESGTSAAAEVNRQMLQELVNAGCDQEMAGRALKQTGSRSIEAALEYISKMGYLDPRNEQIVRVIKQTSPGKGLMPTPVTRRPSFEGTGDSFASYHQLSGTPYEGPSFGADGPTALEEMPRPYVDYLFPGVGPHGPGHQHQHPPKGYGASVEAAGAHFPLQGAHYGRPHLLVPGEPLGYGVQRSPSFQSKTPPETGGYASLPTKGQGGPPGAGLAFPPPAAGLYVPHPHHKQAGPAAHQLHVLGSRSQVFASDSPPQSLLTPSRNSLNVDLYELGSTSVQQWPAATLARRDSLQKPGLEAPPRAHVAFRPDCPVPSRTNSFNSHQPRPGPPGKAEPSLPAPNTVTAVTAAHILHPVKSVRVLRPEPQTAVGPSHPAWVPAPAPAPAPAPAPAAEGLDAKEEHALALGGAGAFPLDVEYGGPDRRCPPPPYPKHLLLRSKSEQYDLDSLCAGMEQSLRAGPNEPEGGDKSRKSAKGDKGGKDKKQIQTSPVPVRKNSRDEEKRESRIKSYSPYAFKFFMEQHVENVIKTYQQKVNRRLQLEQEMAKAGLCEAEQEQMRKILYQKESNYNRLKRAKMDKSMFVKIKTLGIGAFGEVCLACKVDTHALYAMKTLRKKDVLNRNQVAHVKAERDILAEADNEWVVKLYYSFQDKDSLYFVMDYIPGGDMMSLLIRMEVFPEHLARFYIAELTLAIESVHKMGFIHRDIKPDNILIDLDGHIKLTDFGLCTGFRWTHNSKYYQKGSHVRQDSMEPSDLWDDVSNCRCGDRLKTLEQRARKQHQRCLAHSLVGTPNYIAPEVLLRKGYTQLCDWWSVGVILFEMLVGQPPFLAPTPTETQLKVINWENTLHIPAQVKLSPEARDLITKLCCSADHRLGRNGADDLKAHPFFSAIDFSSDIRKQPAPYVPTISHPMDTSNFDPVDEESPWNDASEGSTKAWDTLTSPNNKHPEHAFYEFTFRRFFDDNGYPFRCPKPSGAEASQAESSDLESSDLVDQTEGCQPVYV
Kind of experiment: RBC HotSpot kinase assay (33P-ATP, P81 filter-binding), LATS2. The conditions noted are these: Table 28, biochemical kinase assay; read-out: LATS2 IC50. Summed up: as §1

For the next experiment, the target named is AKT (Homo sapiens, UniProt P31749). Kind of experiment: RBC HotSpot kinase assay (33P-ATP, P81 filter-binding), AKT. The conditions noted are these: Table 28, biochemical kinase assay; read-out: AKT IC50. Summed up:
as §1

Bounds are passed on as bounds.

What is called IC50 is the concentration that gives 50% inhibition.

Chain of AKT (P31749 whole entry): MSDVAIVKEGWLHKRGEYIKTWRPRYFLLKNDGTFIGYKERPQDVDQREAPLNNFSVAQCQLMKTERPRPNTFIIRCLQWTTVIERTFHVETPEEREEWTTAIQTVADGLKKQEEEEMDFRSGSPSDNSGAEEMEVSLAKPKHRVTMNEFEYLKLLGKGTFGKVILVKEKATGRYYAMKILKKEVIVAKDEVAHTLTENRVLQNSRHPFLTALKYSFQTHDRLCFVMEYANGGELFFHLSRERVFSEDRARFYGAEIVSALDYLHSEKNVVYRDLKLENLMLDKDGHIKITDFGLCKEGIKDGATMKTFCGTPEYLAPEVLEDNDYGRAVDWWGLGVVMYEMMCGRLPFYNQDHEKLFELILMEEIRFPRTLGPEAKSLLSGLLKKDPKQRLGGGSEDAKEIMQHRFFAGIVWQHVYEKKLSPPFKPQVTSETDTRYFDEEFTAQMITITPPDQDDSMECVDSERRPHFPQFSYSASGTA

As to `NCc1ccc(-c2ccnc3[nH]ccc23)c(F)c1` [Compound 263, (3-fluoro-4-(1H-pyrrolo[2,3-b]pyridin-4-yl)phenyl) methanamine], the IC50 at LATS1 was found to be 34 nM; at LATS2 it was 72 nM; on AKT, 1190 nM.

As to `NC(=O)c1ccc(-c2ccnc3[nH]ccc23)cc1` [Compound 264, 4-(1H-pyrrolo[2,3-b]pyridin-4-yl)benzamide], the half-maximal inhibitory concentration (IC50) on LATS1 was 343 nM; on LATS2 it was 207 nM; at AKT, > 10000 nM.

As for `c1cc(-c2ccc3c(c2)CNC3)c2cc[nH]c2n1` [Compound 265, 4-(isoindolin-5-yl)-1H-pyrrolo[2,3-b]pyridine], the half-maximal inhibitory concentration (IC50) at LATS1 was 14 nM; at LATS2 it was 13 nM; on AKT, 517 nM.

Regarding `COc1cc(-c2ccnc3[nH]ccc23)ccc1CN` [Compound 268, (2-methoxy-4-(1H-pyrrolo[2,3-b]pyridin-4-yl)phenyl) methanamine], the concentration for half-maximal inhibition (IC50) at LATS1 turned out to be 24 nM; at LATS2, 24 nM; at AKT, 618 nM.

With `CCOc1cc(-c2ccnc3[nH]ccc23)ccc1CN` [Compound 269, (2-ethoxy-4-(1H-pyrrolo[2,3-b]pyridin-4-yl)phenyl) methanamine], the IC50 on LATS1 stood at 40 nM; on LATS2, 36 nM; at AKT, 789 nM.

Take `NCc1ccc(-c2ccnc3[nH]ccc23)cc1F` [Compound 270, (2-fluoro-4-(1H-pyrrolo[2,3-b]pyridin-4-yl)phenyl) methanamine]: the concentration for half-maximal inhibition (IC50) is 28 nM at LATS1, 34 nM on LATS2 and 874 nM on AKT.

For the compound `NCc1ccc(-c2c(Cl)cnc3[nH]ccc23)cc1` [Compound 272, (4-(5-chloro-1H-pyrrolo[2,3-b]pyridin-4-yl)phenyl) methanamine], the values for the 50% inhibitory concentration (IC50) on LATS1, at LATS2 and on AKT were 447 nM, 268 nM and 3100 nM, respectively.

For the compound `NCc1ccc(-c2c(F)cnc3[nH]ccc23)cc1` [Compound 273, (4-(5-fluoro-1H-pyrrolo[2,3-b]pyridin-4-yl)phenyl) methanamine], the 50% inhibitory concentration (IC50) on LATS1 came out at 90 nM; at LATS2 it was 148 nM; at AKT it was 1390 nM.

For `c1ccc(CNCc2ccc(-c3ccnc4[nH]ccc34)cc2)cc1` [Compound 274, N-(4-(1H-pyrrolo[2,3-b]pyridin-4-yl)benzyl)-1-phenylmethanamine], the IC50 stood at 36.6 nM at LATS1, 60.5 nM on LATS2 and 2430 nM on AKT.

On to `c1cc(-c2ccc(CN3CCCC3)cc2)c2cc[nH]c2n1` [Compound 277, 4-(4-(pyrrolidin-1-ylmethyl)phenyl)-1H-pyrrolo[2,3-b]pyridine], for which the IC50 on LATS1 worked out at 63 nM; at LATS2 it was 100 nM; on AKT it was 2200 nM.

As for `c1cc(-c2ccc(C3CCCN3)cc2)c2cc[nH]c2n1` (stereo not drawn) [Compound 278, 4-(4-(pyrrolidin-2-yl)phenyl)-1H-pyrrolo[2,3-b]pyridine], the concentration for half-maximal inhibition (IC50) at LATS1 is 17 nM; on LATS2, 33 nM; at AKT, 321 nM.

As to `Fc1ccc(CNCc2ccc(-c3ccnc4[nH]ccc34)cc2)cc1` [Compound 279, N-(4-(1H-pyrrolo[2,3-b]pyridin-4-yl)benzyl)-1-(4-fluorophenyl) methanamine], the figures for the IC50 at LATS1, on LATS2 and at AKT were 9.8 nM, 29.3 nM and 1080 nM, respectively.

For `Fc1cccc(CNCc2ccc(-c3ccnc4[nH]ccc34)cc2)c1` [Compound 280, N-(4-(1H-pyrrolo[2,3-b]pyridin-4-yl)benzyl)-1-(3-fluorophenyl) methanamine], the concentration for half-maximal inhibition (IC50) came out at 10.8 nM on LATS1, 25.6 nM on LATS2 and 859 nM on AKT.

For the compound `CC(C)(O)C#Cc1cc(-c2ccnc3[nH]ccc23)ccc1CNCc1ccc(F)cc1` [Compound 281, 4-(2-(((4-fluorobenzyl)amino)methyl)-5-(1H-pyrrolo[2,3-b]pyridin-4-yl)phenyl)-2-methylbut-3-yn-2-ol], the IC50 at LATS1 worked out at 82.4 nM; on LATS2, 170 nM; on AKT it was 4620 nM.

As for `Fc1ccc(CNCc2ccc(-c3ccnc4[nH]ccc34)cc2Cl)cc1` [Compound 282, N-(2-chloro-4-(1H-pyrrolo[2,3-b]pyridin-4-yl)benzyl)-1-(4-fluorophenyl) methanamine], the values for the concentration for half-maximal inhibition (IC50) at LATS1, at LATS2 and on AKT were 31.4 nM, 59.2 nM and 3800 nM, respectively.

Take `NCc1ccc(-c2ccnc3[nH]ccc23)cc1Cl` [Compound 283, (2-chloro-4-(1H-pyrrolo[2,3-b]pyridin-4-yl)phenyl) methanamine]: the IC50 on LATS1 came to 8 nM; at LATS2, 20 nM; at AKT, 732 nM.

Turning to `FC(F)(F)Oc1cccc(CNCc2ccc(-c3ccnc4[nH]ccc34)cc2)c1` [Compound 285, N-(4-(1H-pyrrolo[2,3-b]pyridin-4-yl)benzyl)-1-(3-(trifluoromethoxy)phenyl) methanamine], the values for the IC50 on LATS1, at LATS2 and at AKT were 167 nM, 191 nM and 1990 nM, respectively.

With `NCc1ccc(-c2ccnc3[nH]ccc23)c(C(F)(F)F)c1` [Compound 286, (4-(1H-pyrrolo[2,3-b]pyridin-4-yl)-3-(trifluoromethyl)phenyl) methanamine], the IC50 was 5050 nM on LATS1, 1260 nM at LATS2 and 3410 nM at AKT.

On to `COC(=O)c1c[nH]c2nccc(-c3ccc([C@@]4(O)[C@H](C)CNC[C@@H]4C)c(C)c3)c12` [Compound 300, methyl 4-(4-((3S,4s,5R)-4-hydroxy-3,5-dimethylpiperidin-4-yl)-3-methylphenyl)-1H-pyrrolo[2,3-b]pyridine-3-carboxylate], for which the values for the IC50 at LATS1, on LATS2 and on AKT were 3.2 nM, 1.6 nM and 282 nM, respectively.

Consider `CCc1cc(-c2ccnc3[nH]cc(F)c23)ccc1[C@@]1(O)[C@H](C)CNC[C@@H]1C` [Compound 302, (3S,4s,5R)-4-(2-ethyl-4-(3-fluoro-1H-pyrrolo[2,3-b]pyridin-4-yl)phenyl)-3,5-dimethylpiperidin-4-ol], for which the half-maximal inhibitory concentration (IC50) at LATS1 turned out to be 8.7 nM; on LATS2 it was 4.9 nM; on AKT, 39.5 nM.
